Measurements reported in article PMC8887552 (The Journal of antibiotics, 2018).
Where no end group is shown, it is not given here.

Key:
X. axonopodis = format: cell-based, Xanthomonas axonopodis; settings: OD 600 after 16 h of growth, serial two-fold dilutions, room temperature, n = 3
[1] = system: sheep red blood cells (RBCs); format: cell-based

LSLIAAAGKETIRQYLKNEIKKKGRKAVIAW [Syn-safencin]
MIC (X. axonopodis): 8 µM
hemolytic activity (in words) [1]: mild hemolytic activity
